# Laboratory results published in ChEMBL document CHEMBL1201862, “PubChem BioAssay data set” (2004).
# Active and inactive are the calls of the source. For most assays here, no stated cut-off is given here; in the data, actives have a measured EC50 and inactives only a lower limit.
# How the values were obtained:
# [1] = biological target: T1, Sentrin-specific protease 7 (Homo sapiens, UniProt Q9BQF6); assay: inhibition of human SENP7 cleavage activity – biochemical, luminescence, SAR follow-up (AID 504497); assay type: functional
# T1 sequence (Q9BQF6 whole entry): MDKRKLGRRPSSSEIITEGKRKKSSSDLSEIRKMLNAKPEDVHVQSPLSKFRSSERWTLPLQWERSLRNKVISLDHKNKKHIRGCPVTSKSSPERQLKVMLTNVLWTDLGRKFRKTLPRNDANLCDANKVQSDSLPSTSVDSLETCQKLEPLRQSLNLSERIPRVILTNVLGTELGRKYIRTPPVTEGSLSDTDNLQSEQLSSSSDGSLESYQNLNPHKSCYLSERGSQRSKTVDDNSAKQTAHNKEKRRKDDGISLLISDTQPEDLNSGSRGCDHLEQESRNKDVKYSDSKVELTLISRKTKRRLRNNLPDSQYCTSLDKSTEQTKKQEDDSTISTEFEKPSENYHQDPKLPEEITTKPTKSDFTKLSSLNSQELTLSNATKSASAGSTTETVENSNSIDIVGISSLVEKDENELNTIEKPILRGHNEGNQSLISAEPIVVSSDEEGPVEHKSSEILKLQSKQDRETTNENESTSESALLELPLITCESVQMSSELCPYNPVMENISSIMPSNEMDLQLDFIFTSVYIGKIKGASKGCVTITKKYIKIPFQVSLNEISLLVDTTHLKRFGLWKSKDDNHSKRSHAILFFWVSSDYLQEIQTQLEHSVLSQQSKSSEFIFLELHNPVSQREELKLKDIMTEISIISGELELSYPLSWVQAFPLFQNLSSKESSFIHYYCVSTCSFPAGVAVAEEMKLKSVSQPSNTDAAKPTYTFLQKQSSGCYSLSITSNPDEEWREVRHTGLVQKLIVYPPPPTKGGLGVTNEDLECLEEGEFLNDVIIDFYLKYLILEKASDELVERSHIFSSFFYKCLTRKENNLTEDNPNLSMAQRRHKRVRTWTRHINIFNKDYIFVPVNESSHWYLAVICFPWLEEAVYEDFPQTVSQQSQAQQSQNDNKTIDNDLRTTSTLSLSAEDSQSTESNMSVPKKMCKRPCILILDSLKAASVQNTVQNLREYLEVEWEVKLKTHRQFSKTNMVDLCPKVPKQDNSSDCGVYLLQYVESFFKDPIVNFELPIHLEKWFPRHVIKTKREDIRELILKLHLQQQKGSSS
# [2] = biological target: T2, Sentrin-specific protease 8 (Homo sapiens, UniProt Q96LD8); assay: inhibition of human SENP8 cleavage activity – biochemical, luminescence, SAR follow-up (AID 504501); assay type: functional
# T2 sequence (Q96LD8 whole entry): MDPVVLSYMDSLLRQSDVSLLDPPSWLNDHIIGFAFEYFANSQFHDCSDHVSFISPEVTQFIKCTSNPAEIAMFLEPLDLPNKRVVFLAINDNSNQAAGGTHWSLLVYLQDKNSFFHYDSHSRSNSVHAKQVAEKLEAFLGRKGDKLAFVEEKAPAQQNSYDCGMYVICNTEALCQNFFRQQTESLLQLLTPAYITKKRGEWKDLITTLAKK
# [3] = biological target: T3, Sentrin-specific protease 6 (Homo sapiens, UniProt Q9GZR1); assay: SAR Analysis of small molecule inhibitors of Sentrin-specific protease 6 (SENP6) using a Luminescent assay. [Related pubchem assays (depositor defined):AID2582, AID2599]; assay type: functional
# T3 sequence (Q9GZR1 whole entry): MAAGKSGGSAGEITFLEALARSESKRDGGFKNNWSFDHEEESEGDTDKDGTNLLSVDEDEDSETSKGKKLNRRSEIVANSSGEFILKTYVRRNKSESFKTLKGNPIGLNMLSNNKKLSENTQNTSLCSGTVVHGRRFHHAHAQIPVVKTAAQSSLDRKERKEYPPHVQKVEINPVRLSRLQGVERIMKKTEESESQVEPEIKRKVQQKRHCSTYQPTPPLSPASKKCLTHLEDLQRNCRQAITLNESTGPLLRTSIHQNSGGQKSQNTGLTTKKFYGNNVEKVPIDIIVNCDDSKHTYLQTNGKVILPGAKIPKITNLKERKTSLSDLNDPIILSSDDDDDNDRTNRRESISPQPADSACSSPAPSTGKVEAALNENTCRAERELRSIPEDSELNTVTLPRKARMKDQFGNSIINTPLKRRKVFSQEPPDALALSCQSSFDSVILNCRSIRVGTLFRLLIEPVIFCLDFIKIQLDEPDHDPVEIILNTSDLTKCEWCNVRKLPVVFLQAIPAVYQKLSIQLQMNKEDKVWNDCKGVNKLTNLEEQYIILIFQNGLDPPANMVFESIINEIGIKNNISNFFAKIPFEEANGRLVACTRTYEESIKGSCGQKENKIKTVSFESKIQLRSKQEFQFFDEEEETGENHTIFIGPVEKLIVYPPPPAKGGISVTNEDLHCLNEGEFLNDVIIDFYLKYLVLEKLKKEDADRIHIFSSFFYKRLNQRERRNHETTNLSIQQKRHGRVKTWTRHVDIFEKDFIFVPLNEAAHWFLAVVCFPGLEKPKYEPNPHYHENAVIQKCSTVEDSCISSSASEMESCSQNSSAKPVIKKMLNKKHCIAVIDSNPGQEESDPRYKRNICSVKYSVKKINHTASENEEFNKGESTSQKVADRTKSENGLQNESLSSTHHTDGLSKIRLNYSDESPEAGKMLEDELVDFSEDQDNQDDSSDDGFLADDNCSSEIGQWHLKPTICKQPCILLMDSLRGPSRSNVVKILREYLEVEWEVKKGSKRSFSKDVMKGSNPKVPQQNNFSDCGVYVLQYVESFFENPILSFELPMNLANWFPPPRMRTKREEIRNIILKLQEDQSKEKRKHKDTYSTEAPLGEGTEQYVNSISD
# Caspase-3 = biological target: T4, Caspase-3 (Homo sapiens, UniProt P42574); assay: SAR Analysis of small molecule inhibitors of Sentrin-specific proteases (SENPs) using a Caspase-3 Selectivity assay. [Related pubchem assays (depositor defined):AID2540, AID2599, AID434973, AID489001]; assay type: functional
# T4 sequence (P42574 whole entry): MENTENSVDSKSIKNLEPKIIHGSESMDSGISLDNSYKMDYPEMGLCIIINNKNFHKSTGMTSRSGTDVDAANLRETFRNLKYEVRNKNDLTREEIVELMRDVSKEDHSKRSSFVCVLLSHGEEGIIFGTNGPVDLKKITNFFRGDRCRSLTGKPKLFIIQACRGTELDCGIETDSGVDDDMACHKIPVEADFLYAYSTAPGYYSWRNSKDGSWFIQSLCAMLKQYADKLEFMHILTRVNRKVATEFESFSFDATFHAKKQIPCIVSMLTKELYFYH
# [4] = biological target: Sphingosine 1-phosphate receptor 2 (Homo sapiens, UniProt O95136); assay: Late-stage fluorescence-based dose-response cell-based counterscreen assay to identify agonists of the Sphingosine 1-Phosphate Receptor 3 (S1P3): Sphingosine 1-Phosphate Receptor 2 (S1P2) agonist assay.; assay type: functional
# Chain of Sphingosine 1-phosphate receptor 2 (O95136 whole entry): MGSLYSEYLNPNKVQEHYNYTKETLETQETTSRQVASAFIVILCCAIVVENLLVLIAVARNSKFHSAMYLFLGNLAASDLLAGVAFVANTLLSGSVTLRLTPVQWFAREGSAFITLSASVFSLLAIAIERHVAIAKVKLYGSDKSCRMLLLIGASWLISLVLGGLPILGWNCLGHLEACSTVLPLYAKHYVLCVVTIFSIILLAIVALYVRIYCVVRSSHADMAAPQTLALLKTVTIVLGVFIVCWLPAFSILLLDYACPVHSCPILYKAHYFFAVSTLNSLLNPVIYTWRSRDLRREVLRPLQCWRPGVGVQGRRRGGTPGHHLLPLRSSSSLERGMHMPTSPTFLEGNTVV
# [5] = biological target: T5, Sphingosine 1-phosphate receptor 4 (Homo sapiens, UniProt O95977); assay: Late-stage fluorescence-based dose-response cell-based counterscreen assay to identify agonists of the Sphingosine 1-Phosphate Receptor 3 (S1P3): Sphingosine 1-Phosphate Receptor 4 (S1P4) agonist assay.; assay type: functional
# T5 sequence (O95977 whole entry): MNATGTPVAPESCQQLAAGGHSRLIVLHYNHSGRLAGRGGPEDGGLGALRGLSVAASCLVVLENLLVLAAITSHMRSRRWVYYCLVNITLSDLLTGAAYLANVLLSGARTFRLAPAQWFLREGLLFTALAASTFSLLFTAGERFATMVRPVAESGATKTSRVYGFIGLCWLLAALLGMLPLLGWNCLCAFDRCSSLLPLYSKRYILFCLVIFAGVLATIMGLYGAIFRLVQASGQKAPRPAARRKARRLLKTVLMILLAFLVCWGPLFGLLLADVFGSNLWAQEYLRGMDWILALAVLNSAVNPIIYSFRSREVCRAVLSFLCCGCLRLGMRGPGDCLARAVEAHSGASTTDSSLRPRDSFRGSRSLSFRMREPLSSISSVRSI
# [6] = biological target: High affinity nerve growth factor receptor (Homo sapiens, UniProt P04629); assay type: functional;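 further: NTRK1 tested as one member of a kinome-wide profiling panel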
# Chain of High affinity nerve growth factor receptor (P04629 whole entry): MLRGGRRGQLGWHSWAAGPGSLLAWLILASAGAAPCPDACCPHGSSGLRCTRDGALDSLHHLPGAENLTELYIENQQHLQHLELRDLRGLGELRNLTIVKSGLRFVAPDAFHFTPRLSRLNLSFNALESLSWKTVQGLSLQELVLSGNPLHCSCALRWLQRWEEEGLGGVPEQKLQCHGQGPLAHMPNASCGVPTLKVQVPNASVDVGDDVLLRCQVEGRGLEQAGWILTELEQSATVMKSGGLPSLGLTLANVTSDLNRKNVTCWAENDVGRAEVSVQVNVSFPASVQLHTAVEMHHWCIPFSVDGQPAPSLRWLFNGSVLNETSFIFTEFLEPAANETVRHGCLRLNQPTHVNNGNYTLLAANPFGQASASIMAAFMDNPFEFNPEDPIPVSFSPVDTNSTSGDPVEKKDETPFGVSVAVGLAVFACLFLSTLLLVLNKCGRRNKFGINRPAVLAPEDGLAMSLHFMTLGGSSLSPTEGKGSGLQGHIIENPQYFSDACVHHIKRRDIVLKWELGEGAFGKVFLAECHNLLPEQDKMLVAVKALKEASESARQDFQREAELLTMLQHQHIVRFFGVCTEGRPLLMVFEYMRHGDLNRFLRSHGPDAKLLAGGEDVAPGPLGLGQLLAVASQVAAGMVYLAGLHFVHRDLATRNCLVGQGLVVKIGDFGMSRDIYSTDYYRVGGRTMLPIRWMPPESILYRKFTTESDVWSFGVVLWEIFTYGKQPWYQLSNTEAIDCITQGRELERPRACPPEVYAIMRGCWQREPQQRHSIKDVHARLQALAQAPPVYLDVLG
# Aurora kinase A = Aurora kinase A (Homo sapiens, UniProt O14965); assay type: functional;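 further: value from the Navigating the Kinome kinase panel profiling, panel entry STK6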
# Chain of Aurora kinase A (O14965 whole entry): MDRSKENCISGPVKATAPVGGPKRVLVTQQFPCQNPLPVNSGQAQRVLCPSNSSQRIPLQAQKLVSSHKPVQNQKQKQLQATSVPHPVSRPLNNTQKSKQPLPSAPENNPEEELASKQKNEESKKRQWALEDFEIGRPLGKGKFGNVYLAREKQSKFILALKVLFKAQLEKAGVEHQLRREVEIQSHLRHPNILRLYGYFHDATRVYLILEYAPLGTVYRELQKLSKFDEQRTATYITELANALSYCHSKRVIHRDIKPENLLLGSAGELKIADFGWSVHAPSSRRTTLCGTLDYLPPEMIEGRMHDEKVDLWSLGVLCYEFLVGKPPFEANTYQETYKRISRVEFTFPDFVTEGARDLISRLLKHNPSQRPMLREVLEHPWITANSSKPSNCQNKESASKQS
# [7] = NIH-3T3 fibroblast cytotoxicity, dose response, cytotoxicity control, cell-based, fluorescence, Alamar Blue, secondary assay (AID 2327); assay type: functional;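 further: NIH-3T3 mouse fibroblasts cultured with fluconazole at 8 µg/mL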
# [8] = Luminescence Cell-Based Dose Response HTS to Identify Inhibitors of 5'UTR Stem-Loop Driven Prion Protein mRNA Translation in H4 Neuroglioblastoma Cells. [Related pubchem assays: 1827 (Project Summary), 1813 (Primary HTS)]; assay type: functional
# BJ [9] = assay: BJ-TERT fibroblast viability loss – cell-based, RAS-independent, luminescence, dose response (AID 1933); assay type: functional; settings: Homo sapiens
# cells [10] = assay type: functional, cell-based
# [11] = MIN6 cell viability loss – mouse insulinoma, cytotoxicity control, dose response (AID 2122); assay type: functional;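 further: confirmatory high-throughput counterscreen run to flag cytotoxic compounds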
# BJ [12] = assay: BJ-TERT-LT-ST fibroblast viability loss – cell-based, RAS-independent, luminescence, dose response (AID 1935); assay type: functional; settings: Homo sapiens;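 further: BJ fibroblasts immortalized with TERT plus LT and ST oncogenes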
# [13] = decrease of insulin promoter-GFP reporter – imaging, high-content screening, mouse beta cells (AID 1628); assay type: functional; settings: MIN6
# Streptococcus = assay: GAS UMAA2166 growth inhibition – luminescence, BacTiterGlo, counter-screen for streptokinase expression inhibitor project, dose response (AID 1915); assay type: functional, organism-based;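 further: potency for reduction of bacterial viability or growth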
# [14] = biological target: Latent membrane protein 1 (Human herpesvirus 4 (strain B95-8), UniProt P03230); assay: LMP1 TES1 pathway selectivity over dsRED control – imaging, HEK293T, dual-color eGFP/dsRED, cherry-picks, selectivity assay for LMP1 NF-kB inhibitor project, dose response (AID 588398); assay type: functional, cell-based
# Chain of Latent membrane protein 1 (P03230 whole entry): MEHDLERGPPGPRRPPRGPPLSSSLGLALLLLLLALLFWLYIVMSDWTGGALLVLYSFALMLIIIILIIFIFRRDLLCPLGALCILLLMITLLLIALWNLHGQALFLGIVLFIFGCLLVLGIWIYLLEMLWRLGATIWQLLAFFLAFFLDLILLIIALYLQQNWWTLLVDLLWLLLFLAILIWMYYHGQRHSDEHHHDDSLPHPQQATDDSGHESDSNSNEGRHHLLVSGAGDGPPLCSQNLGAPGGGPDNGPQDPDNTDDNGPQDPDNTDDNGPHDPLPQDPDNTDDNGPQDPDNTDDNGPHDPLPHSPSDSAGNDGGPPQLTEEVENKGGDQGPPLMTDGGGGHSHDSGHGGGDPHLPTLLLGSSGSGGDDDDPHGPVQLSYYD
# [15] = luciferase reporter signal suppression in cells – H4 neuroglioma cells, luminescence, dose response (AID 1990); assay type: functional, cell-based
# cells [16] = assay type: functional, cell-based; remark: listed apart in the source
# Vero [17] = assay: mammalian cell viability reduction – secondary assay, cytotoxicity control for West Nile virus antiviral project, dose response (AID 1650); assay type: functional; settings: Chlorocebus sabaeus
# BJ [18] = assay: growth inhibition of engineered Ras-driven BJ cells – cell-based, alamar blue fluorescence, cherrypicked samples, dose response (AID 2631); assay type: functional; settings: Homo sapiens;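 further: confirmatory dose-response assay in RAS-dependent BJ fibroblasts engineered with TERT, LT and ST, with cytotoxicity read by fluorescence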
# BJ [19] = assay: cells; assay type: functional, cell-based; settings: Homo sapiens
# [20] = tested on: Streptococcus sp. 'group A'; assay: Streptococcus pyogenes SK(-)GAS viability under kanamycin – luminescence, BacTiterGlo, confirmation, counter-screen for streptokinase expression inhibitor project, dose response (AID 1900); assay type: functional, organism-based
# [21] = alpha-synuclein stem-loop luciferase translation blockers – H4 neuroglioma cells, luminescence, confirmation (AID 1988); assay type: functional, cell-based
# [22] = fluconazole-exposed Candida albicans growth modulators – fluorescence, retest, confirmation (AID 2467); assay type: functional, cell-based
# [23] = DRD fibroblast viability loss – cell-based, non-viral oncogenic, luminescence, dose response (AID 1934); assay type: functional; settings: Homo sapiens
# Vero [24] = assay: cells; assay type: functional; settings: Chlorocebus sabaeus
compound,measurement,setting,value
CN(C)CCN(C(=O)c1ccc(Cl)s1)c1nc2ccc(S(C)(=O)=O)cc2s1,IC50,[1],> 99 µM (inactive)
same,IC50,[2],> 99 µM (inactive)
same,IC50,[3],> 99 µM (inactive)
same,IC50,Caspase-3,> 99 µM (inactive)
CCOc1ccc(-c2nc(C(=O)N(C3CCCCC3)C3CCCCC3)co2)cc1OCC,EC50,[4],> 50 µM (inactive)
same,EC50,[5],> 50 µM (inactive)
CCOC(=O)C(C(N)=O)C(=S)Nc1ccc(C)cc1 (configuration not stated),Ki,[6],5.01 µM (active)
same,Ki,Aurora kinase A,0.0501 µM (active)
CCN(CC)c1ccc(/C=N/Nc2nc3ccccc3[nH]2)c(O)c1,EC50,[7],22.6 µM (inconclusive)
same,EC50,[8],8.71 µM (active)
same,EC50,BJ [9],1.22 µM (active)
same,EC50,cells [10],2.56 µM (active)
same,IC50,[11],2.51 µM (active)
same,EC50,BJ [12],1.37 µM (inconclusive)
same,IC50,[13],2.45 µM (active)
same,EC50,Streptococcus,7.8 µM (active)
same,AC50,[14],17.4 µM (active)
same,EC50,[15],6.26 µM (active)
same,EC50,cells [16],115 µM (active)
same,CC50,Vero [17],2.03 µM (active)
same,EC50,BJ [18],0.571 µM (inconclusive)
same,EC50,BJ [19],2.15 µM (active)
same,EC50,[20],4.47 µM (active)
same,EC50,[21],2.64 µM (active)
same,EC50,[22],1.42 µM (active)
same,EC50,[23],1.37 µM (inconclusive)
same,CC50,Vero [24],1.59 µM (active)
